Measured values published in a melting point compilation (Tetko et al.; mined from patent text by program, amines drawn as free bases though some values may be those of a salt).

Row | SMILES | melting point [°C]
1 | CC(CN1CCCC1)N1c2ccc(Cl)cc2Sc2ccc(C3=NC4CCCCC4N3)cc21 (racemic) | 120
2 | CCOc1cc(C=O)ccc1OCC(=O)O | 90 to 92.6
3 | CC(C)(C)c1ncc(C(=C(Cl)Cl)C(F)(F)F)cn1 | 58
4 | COc1cc(OC)c2c(=O)[nH]c(-c3cc(C)c(OCCN4Cc5ccccc5C4)c(C)c3)nc2c1 | 202
5 | Clc1nc(Cl)c2[nH]nnc2n1 | > 260
6 | Cc1cc2nc(NC3=NCCN3)[nH]c2cc1C | 266
7 | CC(=O)CC(=O)NCc1ccccc1 | 84 to 86
8 | COc1cc(-c2nc(C)no2)cc2oc(=O)c(C)c(C)c12 | 172 to 174
9 | COc1ccc(-c2c(Cl)c(CN3C(=O)CCC3=O)nc3sc4c(c23)CCN(Cc2ccccc2)C4)cc1OC | 128 to 130
10 | COc1ccccc1P(CCCP(c1ccccc1OC)c1ccccc1OC)c1ccccc1OC | 149 to 150
11 | O=C(OCC(=O)N1CCCCC1)c1ccc(O)cc1 | 160 to 164
12 | CC(C)(C)N=NC(C)(C)C#N | 17
13 | CN(NC(=O)c1ccccc1CO)C(=S)Nc1cccc(F)c1 | 136 to 137
14 | CCCCc1ncc(/C=C(/C(=O)O)C(CCCC)c2cccs2)n1Cc1ccccc1Cl (stereo unspecified) | 161 to 163
15 | CCc1cc(C(C)=O)c(O)cc1OCCCC(C)(C)C#N | 55 to 56
16 | CCOC(=O)C(=O)c1csc(NC(=O)Nc2ccccc2)n1 | 217 to 220
17 | N#CSc1cc2sc(NC(=O)C3CC3)nc2cc1F | 256
18 | ON=C1CCc2c(cccc2OCC(O)CN2CCN(C(c3ccccc3)c3ccccc3)CC2)C1 (stereo unspecified) | 177
19 | Cc1nnc(-c2ccc3occ(-c4cnn(Cc5ccccc5)c4)c3n2)o1 | 194 to 195
20 | ON=C1CCC(c2ccc(Cl)cc2)c2ccccc21 (stereo unspecified) | 150 to 154
21 | COc1cc(Nc2c(C#N)cnc3cc(OC)c(Br)cc23)c(Cl)cc1Cl | 256 to 257
22 | N#CC(C#N)=C1N(CCCN2CCC(F)(F)C2)CCN1CCCN1CCC(F)(F)C1 | 122 to 124

Row | SMILES | melting point [°C]
23 | CCCCNc1c(C(=O)OCC)cnc(O)c1C(C)=O | 134 to 136
24 | CC(C)(C)OC(=O)CC1(SN=O)C2CC3CC(C2)CC1C3 (stereo unspecified) | 85 to 87
25 | O=C(O)c1cccc2cc3ccccc3nc12 | 202 to 204
26 | Fc1cc(F)cc(N2c3ccccc3Sc3ccccc32)c1 | 111 to 115
27 | O=C(O)CCCCCCCCCCSc1nc(-c2ccccc2)c(-c2ccccc2)[nH]1 | 193 to 195
28 | O=C1N[C@H](C(=O)NCCCCO)CS1 | 81 to 83
29 | c1ccc(C(c2ccccc2)N2CCC2)cc1 | 107 to 109
30 | CCCN(C)c1nn(C)c(=O)c2c1ccn2-c1c(C)cc(C)cc1C | 105 to 108
31 | CCc1cc(-n2ccc(=O)cc2)c(S(C)(=O)=O)cc1C(=O)N=C(N)N | 261 to 263
32 | CC(=O)Nc1ccc(F)c(N2CCN(C(C)=O)CC2)n1 | 178 to 180
33 | CCOC(C)(C)C#Cc1ncn2c1CN(C)C(=O)c1cc(F)ccc1-2 | 136 to 138
34 | OCCc1ccc2sccc2c1 | 56 to 57
35 | Cc1ccc(NCC2CCN(C(C)C)CC2)c(C(=O)Nc2ccc(F)cn2)c1 | 58 to 60
36 | COc1cc(I)c(C(=O)N(c2ccnc3cc4c(cc23)OCO4)C(C)CN(C)C)cc1OC (stereo unspecified) | 82 to 84
37 | O=C1CCC(c2ccc(O)cc2)=NN1 | 157 to 159
38 | CCC(=O)C(CC(=O)c1ccccc1)C(O)=S (stereo unspecified) | 110 to 112
39 | Cn1nc(-c2cccc(-n3ncc4cc(C(C)(C)C)cc(F)c4c3=O)c2CO)cc(Nc2cnc([C@H](O)CO)cn2)c1=O | 218 to 224
40 | CCNC(=O)c1ccc(N2CCN(Cc3cnc4c(c3)NC(=O)C3CCCCN43)CC2)cc1 (stereo unspecified) | 233
41 | CS(=O)(=O)c1ccc(C2=CC(=O)C3(CCOCC3)O2)cc1 | 163 to 165
42 | CCCCC/C(=C\C=C\C(=O)O)c1ccc(F)cc1 | 116 to 118
43 | C=CCn1c(C(F)(F)F)nc2cc(-n3c(=O)cc(C(F)(F)F)n(C)c3=O)ccc21 | 185 to 187
44 | CN(Cc1ccccc1)Cc1nc(-c2ncn3c2CN(C)C(=O)c2cc(F)ccc2-3)no1 | 161 to 162

Row | SMILES | melting point [°C]
45 | CC(=O)N1CCN(C(=O)OC2C3=C(SCCS3)C(=O)N2c2ccc3ccc(Cl)nc3n2)CC1 (stereo unspecified) | 271
46 | O=P(O)(O)C(F)P(=O)(O)O | 162 to 163
47 | CC(C)(C)C(NC(=O)c1ccccc1)NC(=S)Nc1cccnc1 (stereo unspecified) | 193 to 194
48 | N#Cc1cnc2c(c1)N(Cc1cc(F)ccc1F)CCN2 | 204 to 206
49 | O=C(O)Cn1cc(Br)cnc1=O | 183 to 185
50 | N#CCCCSc1cccc(NC(N)=NCC(F)(F)F)n1 | 89 to 91
51 | CCCC[C@H](NC(=O)[C@H](CC(C)C)NC(=O)c1ccccc1OC)C(=O)CSCc1ccco1 | 77 to 78
52 | N=c1[nH]c2ccccc2c2nc(-c3ccco3)nn12 | 282 to 285
53 | O=C(O)C(=Cc1c[nH]c2ncccc12)c1ccccc1 | > 230
54 | CC(=O)NCc1ccc(CN2CCN(c3ccc(F)cc3F)CC2)cc1 | 94 to 95
55 | CSc1ncc2cc(C)c(N)nc2n1 | 268 to 270
56 | Cc1ccc(C#N)c(NC(C)C)c1 | 55 to 57
57 | NC1CCC(CCN2CCN(c3ccccc3)CC2)CC1 (stereo unspecified) | 65 to 70
58 | O=C(CN1CCCC1=O)NCc1cccc(CNC(=O)CN2CCCC2=O)n1 | 149
59 | Nc1ncc2c(n1)CCC(=O)C2 | 214 to 217
60 | C=C(C)C1=CC(C)(C)Oc2c(OCC)cc(Cc3cnc(N)nc3N)cc21 | 188 to 189
61 | Cc1noc([C@@H](Cc2ccccc2)NC(=O)[C@@H](Cc2ccc3ccccc3c2)NC(=O)C=CC(C)(C)NC(=O)OC(C)(C)C)n1 | 161 to 167
62 | COC(=O)c1cc(O)cc(OC)c1 | 85 to 86
63 | O=c1oc(OCCBr)c(Cl)c2ccccc12 | 183 to 185
64 | CCc1nc2c(N)cccc2o1 | 46
65 | O=C(NC(CS)Cc1ccccc1)NC(CS)Cc1ccccc1 (stereo unspecified) | 136 to 138
66 | Cc1ccc2c(S(C)(=O)=O)cn(CC3=NCCN3)c2c1 | > 300

The remaining lines, values ahead:

Row | melting point [°C] | SMILES
67 | 67 to 68 | CCc1cc(C(=O)c2ccccc2Cl)c(-n2c(C)nnc2CNC(=O)c2cc3ccccc3n2CCC(=O)OC)s1
68 | 95.5 to 96.2 | Cc1[nH]c2ccc(C(=O)NS(=O)(=O)CCCCl)cc2c1Cc1ccc(Cl)cc1Cl
69 | 184 to 185 | Cc1cc(C(C)(C)C)c(O)c(S(=O)(=O)Nc2ccc(I)cc2)c1
70 | 143 to 144 | NC(=O)c1c(F)cccc1C(F)(F)F
71 | 105 to 107 | CCOC(=O)c1cc2cc(-c3ccc(C(C)=O)cc3)ccc2o1
72 | 140 to 142 | CC(C)(C)c1ccc(C[C@@H](NC(=O)c2cccc3c2C=CCCC3)[C@@H](O)c2ccc(F)cc2)cc1 (racemic)
73 | 174 to 176 | CCC(C)(C)c1cc(-c2cccc(C=C3SC(N4CCOCC4)=NC3=O)c2)ccc1O
74 | 191 to 192 | CC(C)n1nc(-c2cc(C#N)c(Cl)nc2-c2ccccc2)ccc1=O
75 | 84 | CCCCCC[C@H](C)Oc1ccc(-c2ccc(OC(=O)c3ccccc3)cc2)cc1
76 | 207 to 208 | FC(F)(F)c1ccc(N=c2ccc3nc4ccccc4sc-3c2)cc1
77 | 184 | Fc1ccc(-c2csc(Nc3ccccc3C(F)(F)F)n2)cc1
78 | 70 | O=C(O)CCCCOc1cccc(CNC(=O)C2Cc3ccccc3N2S(=O)(=O)c2ccc(-c3cccc(C(F)(F)F)c3)cc2)c1 (stereo unspecified)
79 | 170 | CCOC(=O)c1ccc(-c2ccc(O)c(-c3ccc(N(CC)CC)c(C(F)(F)F)c3)c2)cc1
80 | < 50 | CCCCc1nn2cccc(C(=O)OCC)c2c1C(=O)c1ccc(Br)cc1
81 | 94 to 96 | CC(C)n1c(CC[C@@H](O)C[C@@H](O)CC(=O)OC(C)(C)C)c(-c2ccc(F)cc2)c(-c2ccccc2)c1C(N)=O
82 | 209 to 211 | NC(=O)c1c(Cl)c(-c2ccccc2)n2c1CN(S(=O)(=O)Nc1ccc(C(F)(F)F)cc1)CC2
83 | 250 to 253 | O=C(Nc1ccc(C(F)(F)F)cc1)Nc1ccc(C(=O)N2CCOCC2)s1
84 | 188 to 189 | COC(=O)c1sc(C)c2ncn(Cc3ccc(-c4ccccc4-c4nnn[nH]4)cc3)c12

Row | melting point [°C] | SMILES
85 | 91 to 93 | COC(=O)c1ccc(/C=C(\C)c2ccc3c(c2)N(C)CCN3C)cc1
86 | 149 to 150 | COc1ccc(S(=O)(=O)CCCc2ccc(CC(=O)O)cc2)cc1
87 | 128 to 129 | CCOC(=O)CCc1cc(O)nn1Cc1ccccc1
88 | 145 to 146 | CC(=O)N(c1cccc(Oc2ccccc2)c1)C(C)C(=O)O (stereo unspecified)
89 | 66 | CCOC(=O)CCC(=O)c1cc(-c2ccccc2)nc2ccccc12
90 | 208 | COc1ccc(C(=O)Nc2ccc3ccc(Oc4ccccc4F)nc3n2)cc1
91 | 251 to 252 | COc1cc(F)ccc1C(=O)Nc1cc(-c2c(-c3ccc(F)c(C)c3)nc3cccnn23)ccn1
92 | 165 to 167 | CCOC(=O)c1cnc2c(SCc3ccccc3)cccn2c1=O
93 | 294 | O=[N+]([O-])c1ccc(-c2nc[nH]c2-c2ccc([N+](=O)[O-])cc2)cc1
94 | 84 to 86.5 | CC(=O)Oc1ccc(-c2cnc(N(S(=O)(=O)Cc3ccccc3)S(=O)(=O)Cc3ccccc3)c(Cc3ccccc3)n2)cc1
95 | 194 | CNC(=O)c1cccc(NC(=O)COc2cccc3ccccc23)c1
96 | 95.5 to 96.5 | CCn1c2ccccc2c2cc3ccccc3c(C=O)c21
97 | 178 to 180 | CSCCCc1cc(F)c2ncc(C(=O)NCc3ccc(Cl)cc3)c(O)c2c1
98 | 190 to 191 | COC(=O)CCCc1c(-c2ccc(F)cc2)[nH]c2ccc(-c3ccc([N+](=O)[O-])cc3)cc12
99 | 83.8 | O=C(O)CCc1ccc(C(=O)NCc2ccccn2)cc1
100 | 76 to 78 | CCOC(=O)OC(C)OC(=O)c1cc(-c2ccc(F)cc2F)ccc1O (stereo unspecified)
101 | 205 to 209 | CCCc1cccc(Cl)c1C(=O)N[C@@H](Cc1ccc(-c2c(C)n(C)c(=O)n(C)c2=O)cc1)C(=O)O
